Where two headings read alike, the source gives them in different places.
Key:
Test in all cases: CYP enzyme inhibition, fluorescent substrate
[1] = target: CYP1A2 (Homo sapiens (Human), UniProt P05177); conditions: human, 15 min
Procedure: (§1) CYP (Cytochrome P450) enzymes are the major drug metabolizing enzymes present in the liver. The inhibition of CYP enzyme activity (IC50) for each of CYP1A2, CYP2C19, CYP2C9, CYP2D6, CYP3A4(BFC) and CYP3A4(BQ) is determined for compounds, where inhibition of metabolism of a known substrate leads to a decrease in the fluorescence of the metabolized product. The fluorescence of the product is monitored as a function of compound concentration.
(§2) Compounds are dissolved in DMSO to a concentration of 100 mM. These are diluted 1 μL into 82 μL of acetonitrile. An 11 μL aliquot of this solution is then added to 204 μL of cofactor mix (1.3% NADPH Regeneration system Solution A, 1.04% NADPH Regeneration system Solution B from BD Biosciences, 5% acetonitrile and 0.05% DMSO). These are then serially diluted 1:1 (160 μL to 160 μL co-factor mix) for a total of 10 points. A 10 μL aliquot of this final mixture is dispensed into 384 well assay plates and incubated for 10 minutes at 37° C. Enzyme and substrate mix (10 μL; […] CYP1A2/5 μM CEC; 1.0 μmol CYP2C9/75 μM MFC; […] CYP2C19/25 μM CEC; 1.5 μmol CYP2D6/1.5 μM AMMC; 1.0 μmol CYP3A4/50 μM BFC; or 1.0 μmol CYP3A4/40 μM BQ) is added to these assay plates. Assay plates are incubated at 37° C. (CYP1A2-15 min; CYP2C9-45 min; CYP2C19, 2D6 and 3A4-30 min) and read in a Tecan Safire 2 plate reader (CYP1A2, 2C19 and 3A4 409 ex/460 em; CYP2C9 and 2D6409 ex/530 em). The signal versus compound concentration is used to determine the IC50. The enzymes and substrates for this assay are obtained from BD Biosciences.

[2] = target: CYP2C9 (Homo sapiens (Human), UniProt P11712)
Sequence of CYP2C9 (P11712 whole entry): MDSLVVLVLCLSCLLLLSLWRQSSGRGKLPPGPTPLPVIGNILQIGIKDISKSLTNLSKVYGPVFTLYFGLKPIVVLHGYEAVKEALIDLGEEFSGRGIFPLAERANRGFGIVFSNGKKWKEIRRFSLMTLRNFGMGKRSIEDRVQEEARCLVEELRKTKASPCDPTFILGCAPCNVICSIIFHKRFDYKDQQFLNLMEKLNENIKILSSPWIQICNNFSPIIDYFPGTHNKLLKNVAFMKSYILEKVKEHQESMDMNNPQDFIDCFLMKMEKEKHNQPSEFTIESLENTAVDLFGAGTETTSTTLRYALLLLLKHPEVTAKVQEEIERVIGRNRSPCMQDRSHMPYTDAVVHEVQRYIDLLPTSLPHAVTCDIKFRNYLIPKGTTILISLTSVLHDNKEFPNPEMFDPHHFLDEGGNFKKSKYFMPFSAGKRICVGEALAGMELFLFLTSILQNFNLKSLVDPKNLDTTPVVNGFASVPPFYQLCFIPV
Procedure: as §1, §2

[3] = target: CYP2C19 (Homo sapiens (Human), UniProt P33261)
Sequence of CYP2C19 (P33261 whole entry): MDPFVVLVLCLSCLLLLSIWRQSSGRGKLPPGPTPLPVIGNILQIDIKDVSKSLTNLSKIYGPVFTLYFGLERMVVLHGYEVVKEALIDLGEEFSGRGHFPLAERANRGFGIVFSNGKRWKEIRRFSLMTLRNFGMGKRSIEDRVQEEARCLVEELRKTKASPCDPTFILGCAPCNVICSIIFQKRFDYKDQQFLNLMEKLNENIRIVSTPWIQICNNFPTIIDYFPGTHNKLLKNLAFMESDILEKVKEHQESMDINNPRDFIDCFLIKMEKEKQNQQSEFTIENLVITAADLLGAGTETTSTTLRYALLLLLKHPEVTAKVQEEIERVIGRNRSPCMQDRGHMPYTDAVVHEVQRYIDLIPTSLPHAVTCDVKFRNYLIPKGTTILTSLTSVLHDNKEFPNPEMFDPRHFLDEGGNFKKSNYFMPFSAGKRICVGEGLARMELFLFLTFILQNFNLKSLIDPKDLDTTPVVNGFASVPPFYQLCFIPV
Procedure: as §1, §2

[4] = target: CYP3A4(BQ) (Homo sapiens (Human), UniProt P08684)
Sequence of CYP3A4(BQ) (P08684 whole entry): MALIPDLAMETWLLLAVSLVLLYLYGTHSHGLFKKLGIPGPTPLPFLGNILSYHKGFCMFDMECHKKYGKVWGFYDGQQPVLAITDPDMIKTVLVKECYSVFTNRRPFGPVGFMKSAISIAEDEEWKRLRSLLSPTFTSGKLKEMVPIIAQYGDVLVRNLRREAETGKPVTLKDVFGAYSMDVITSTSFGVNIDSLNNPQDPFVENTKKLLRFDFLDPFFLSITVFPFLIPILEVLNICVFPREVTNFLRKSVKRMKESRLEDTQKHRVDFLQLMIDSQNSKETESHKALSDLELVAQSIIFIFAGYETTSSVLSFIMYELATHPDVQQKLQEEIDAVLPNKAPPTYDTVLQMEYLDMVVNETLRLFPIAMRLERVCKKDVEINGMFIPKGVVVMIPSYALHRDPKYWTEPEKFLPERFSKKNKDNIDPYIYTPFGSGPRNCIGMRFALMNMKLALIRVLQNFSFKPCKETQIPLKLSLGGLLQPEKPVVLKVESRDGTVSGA
Procedure: as §1, §2

[5] = target: CYP2D6 (Homo sapiens (Human), UniProt P10635); conditions: read-out: Cyp IC50 (μM) 2D6
Sequence of CYP2D6 (P10635 whole entry): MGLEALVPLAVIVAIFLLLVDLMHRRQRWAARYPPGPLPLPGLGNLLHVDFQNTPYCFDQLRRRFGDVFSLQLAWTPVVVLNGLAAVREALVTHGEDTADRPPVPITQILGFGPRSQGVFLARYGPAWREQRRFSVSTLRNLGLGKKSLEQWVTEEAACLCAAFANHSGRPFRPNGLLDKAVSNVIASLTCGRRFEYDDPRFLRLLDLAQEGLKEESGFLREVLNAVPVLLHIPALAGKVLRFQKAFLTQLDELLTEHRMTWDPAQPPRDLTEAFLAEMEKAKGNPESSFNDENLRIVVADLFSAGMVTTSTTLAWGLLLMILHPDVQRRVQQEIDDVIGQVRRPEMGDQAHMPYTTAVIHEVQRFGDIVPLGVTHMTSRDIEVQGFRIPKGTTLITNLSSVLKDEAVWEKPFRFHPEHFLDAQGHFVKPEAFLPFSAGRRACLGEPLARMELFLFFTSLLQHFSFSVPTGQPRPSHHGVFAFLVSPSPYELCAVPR
Procedure: as §1, §2

[6] = target: CYP3A4(BFC) (Homo sapiens (Human), UniProt P08684)
Sequence of CYP3A4(BFC) (P08684 whole entry): as the sequence (P08684 whole entry) above
Procedure: as §1, §2

[7] = read-out: Cyp IC50 (μM) 3A4(BFC), BFC substrate
[8] = read-out: Cyp IC50 (μM) 3A4(BQ), BQ substrate
[9] = human, CYP2C9 enzyme (BD Biosciences), 45 min

Sequence of CYP1A2 (P05177 whole entry): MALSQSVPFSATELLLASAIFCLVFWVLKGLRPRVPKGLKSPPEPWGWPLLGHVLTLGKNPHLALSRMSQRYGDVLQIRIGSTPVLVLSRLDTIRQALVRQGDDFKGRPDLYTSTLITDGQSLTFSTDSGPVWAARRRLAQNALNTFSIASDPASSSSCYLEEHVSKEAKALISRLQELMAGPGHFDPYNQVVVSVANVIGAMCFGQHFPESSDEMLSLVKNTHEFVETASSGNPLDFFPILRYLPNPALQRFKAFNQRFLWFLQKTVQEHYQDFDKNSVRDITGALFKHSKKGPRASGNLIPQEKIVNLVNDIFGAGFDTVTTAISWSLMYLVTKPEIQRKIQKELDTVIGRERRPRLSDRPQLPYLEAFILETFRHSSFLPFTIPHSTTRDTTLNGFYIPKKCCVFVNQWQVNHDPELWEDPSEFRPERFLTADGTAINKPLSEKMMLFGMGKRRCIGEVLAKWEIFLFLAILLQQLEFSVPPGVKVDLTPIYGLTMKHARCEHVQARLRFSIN

| SMILES | IC50 [1] | IC50 ([2]; read-out: Cyp IC50 (μM) 2C9) | IC50 ([3]; read-out: Cyp IC50 (μM) 2C19) | IC50 [4] | IC50 [5] | IC50 [6, 7] | IC50 [2] | IC50 [3] | IC50 [4, 8] | IC50 [6] | IC50 [2, 9] | IC50 ([1]; CYP1A2 enzyme (BD Biosciences)) | IC50 ([2]; human, 45 min) |
| --- | --- | --- | --- | --- | --- | --- | --- | --- | --- | --- | --- | --- | --- |
| Cc1cnc2[nH]cc(Cc3cnc(NCc4cccc(N5CCOCC5)n4)nc3)c2c1 [Compound P-2081, [5-(5-Methyl-1H-pyrrolo[2,3-b]pyridin-3-ylmethyl)-pyrimidin-2-yl]-(6-morpholin-4-yl-pyridin-2-ylmethyl)-amine] | > 10 µM | < 5 µM | < 5 µM | 5 to 10 µM | > 10 µM | < 5 µM |  |  |  |  |  |  |  |
| COc1ncc(F)cc1CNc1ncc(Cc2c[nH]c3ncc(C)cc23)cn1 [Compound P-2061, (5-Fluoro-2-methoxy-pyridin-3-ylmethyl)-[5-(5-methyl-1H-pyrrolo[2,3-b]pyridin-3-ylmethyl)-pyrimidin-2-yl]-amine] | > 10 µM |  | > 10 µM | 5 to 10 µM | > 10 µM | > 10 µM | 5 to 10 µM |  |  |  |  |  |  |
| Cc1cnc2[nH]cc(Cc3cnc(NCc4cccc(C)n4)nc3)c2c1 [Compound P-2079, (6-Methyl-pyridin-2-ylmethyl)-[5-(5-methyl-1H-pyrrolo[2,3-b]pyridin-3-ylmethyl)-pyrimidin-2-yl]-amine] | > 10 µM |  |  | 5 to 10 µM | > 10 µM | < 5 µM | 5 to 10 µM | 5 to 10 µM |  |  |  |  |  |
| Cc1cnc2[nH]cc(Cc3ccc(NCc4ccnc(F)c4)nc3F)c2c1 [Compound P-2118, [6-Fluoro-5-(5-methyl-1H-pyrrolo[2,3-b]pyridin-3-ylmethyl)-pyridin-2-yl]-(2-fluoro-pyridin-4-ylmethyl)-amine] | > 10 µM |  | < 5 µM |  | > 10 µM |  | 5 to 10 µM |  | > 10 µM | 5 to 10 µM |  |  |  |
| Cn1cc(F)cc(CNc2ncc(Cc3c[nH]c4ncc(Cl)cc34)cn2)c1=O [Compound P-2157, 3-{[5-(5-Chloro-1H-pyrrolo[2,3-b]pyridin-3-ylmethyl)-pyrimidin-2-ylamino]-methyl}-5-fluoro-1-methyl-1H-pyridin-2-one] | > 10 µM |  |  |  | > 10 µM |  |  |  | > 10 µM | 5 to 10 µM | > 10 µM |  |  |
| Fc1cc(Cc2c[nH]c3ncc(Cl)cc23)cnc1NCc1ccc(C(F)(F)F)nc1 [Compound P-2172, [5-(5-Chloro-1H-pyrrolo[2,3-b]pyridin-3-ylmethyl)-3-fluoro-pyridin-2-yl]-(6-trifluoromethyl-pyridin-3-ylmethyl)-amine] | > 10 µM |  | < 5 µM |  | > 10 µM | > 10 µM | 5 to 10 µM |  |  |  |  |  |  |
| COc1cnc2[nH]cc(Cc3ccc(NCc4cncc(F)c4)nc3F)c2c1 [Compound P-2028, [6-Fluoro-5-(5-methoxy-1H-pyrrolo[2,3-b]pyridin-3-ylmethyl)-pyridin-2-yl]-(5-fluoro-pyridin-3-ylmethyl)-amine] | > 10 µM | < 5 µM | > 10 µM |  |  | < 5 µM |  |  | < 5 µM |  |  |  |  |
| COc1cnc2[nH]cc(Cc3cnc(NCc4ccc(C(F)(F)F)nc4)c(F)c3)c2c1 [Compound P-2147, [3-Fluoro-5-(5-methoxy-1H-pyrrolo[2,3-b]pyridin-3-ylmethyl)-pyridin-2-yl]-(6-trifluoromethyl-pyridin-3-ylmethyl)-amine] | > 10 µM | > 10 µM | < 5 µM | 5 to 10 µM | > 10 µM |  |  |  |  | 5 to 10 µM |  |  |  |
| Cc1cnc2[nH]cc(Cc3cnc(NCc4ccc(Cl)nc4)nc3)c2c1 [Compound P-2078, (6-Chloro-pyridin-3-ylmethyl)-[5-(5-methyl-1H-pyrrolo[2,3-b]pyridin-3-ylmethyl)-pyrimidin-2-yl]-amine] |  |  |  |  |  |  |  |  |  |  |  | > 10 µM | < 5 µM |
| COc1ncccc1CNc1ccc(Cc2c[nH]c3ncccc23)c(F)n1 [Compound P-2045, [6-Fluoro-5-(1H-pyrrolo[2,3-b]pyridin-3-ylmethyl)-pyridin-2-yl]-(2-methoxy-pyridin-3-ylmethyl)-amine] | > 10 µM | > 10 µM |  |  |  |  |  | 5 to 10 µM | > 10 µM | 5 to 10 µM |  |  |  |
| COc1ccc(CNc2ccc(Cc3c[nH]c4ncc(F)cc34)c(F)n2)cn1 [Compound P-1622, [6-Fluoro-5-(5-fluoro-1H-pyrrolo[2,3-b]pyridin-3-ylmethyl)-pyridin-2-yl]-(6-methoxy-pyridin-3-ylmethyl)-amine] | > 10 µM |  |  | 5 to 10 µM | > 10 µM |  | 5 to 10 µM |  |  | 5 to 10 µM |  |  |  |
| COc1cc(CNc2ccc(Cc3c[nH]c4ncc(C)cc34)c(F)n2)c(F)cn1 [Compound P-2071, (5-Fluoro-2-methoxy-pyridin-4-ylmethyl)-[6-fluoro-5-(5-methyl-1H-pyrrolo[2,3-b]pyridin-3-ylmethyl)-pyridin-2-yl]-amine] | > 10 µM |  | > 10 µM | 5 to 10 µM |  |  | 5 to 10 µM |  |  | 5 to 10 µM |  |  |  |
| COc1ncc(F)cc1CNc1ccc(Cc2c[nH]c3ncc(NC(C)=O)cc23)c(F)n1 [Compound P-1669, N-(3-{2-fluoro-6-[(5-fluoro-2-methoxy-pyridin-3-ylmethyl)-amino]-pyridin-3-ylmethyl}-1H-pyrrolo[2,3-b]pyridin-5-yl)-acetamide] | > 10 µM | < 5 µM | > 10 µM |  | > 10 µM |  |  |  |  | 5 to 10 µM |  |  |  |
| CS(=O)(=O)Nc1cnc2[nH]cc(Cc3ccc(NCc4ccc(Cl)nc4)nc3F)c2c1 [Compound P-1679, N-(3-{6-[(6-Chloro-pyridin-3-ylmethyl)-amino]-2-fluoro-pyridin-3-ylmethyl}-1H-pyrrolo[2,3-b]pyridin-5-yl)-methanesulfonamide] | > 10 µM |  |  |  | > 10 µM | > 10 µM |  |  |  |  | < 5 µM |  |  |
| COc1cnc2[nH]cc(Cc3ccc(NCc4cccnc4OC)nc3F)c2c1 [Compound P-2043, [6-Fluoro-5-(5-methoxy-1H-pyrrolo[2,3-b]pyridin-3-ylmethyl)-pyridin-2-yl]-(2-methoxy-pyridin-3-ylmethyl)-amine] | > 10 µM |  |  | 5 to 10 µM |  | > 10 µM | 5 to 10 µM |  |  |  |  |  |  |
| COc1ncc(F)cc1CNc1ncc(Cc2c[nH]c3ncc(Cl)cc23)cn1 [Compound P-2064, [5-(5-Chloro-1H-pyrrolo[2,3-b]pyridin-3-ylmethyl)-pyrimidin-2-yl]-(5-fluoro-2-methoxy-pyridin-3-ylmethyl)-amine] | > 10 µM |  |  |  | > 10 µM | > 10 µM | 5 to 10 µM |  | > 10 µM |  |  |  |  |
| COc1ncccc1CNc1ccc(Cc2c[nH]c3ncc(C)cc23)c(F)n1 [Compound P-2052, [6-Fluoro-5-(5-methyl-1H-pyrrolo[2,3-b]pyridin-3-ylmethyl)-pyridin-2-yl]-(2-methoxy-pyridin-3-ylmethyl)-amine] | > 10 µM |  |  | 5 to 10 µM | > 10 µM |  | 5 to 10 µM |  |  | 5 to 10 µM |  |  |  |
| CCS(=O)(=O)Nc1ccccc1CNc1ccc(Cc2c[nH]c3ncc(C)cc23)c(F)n1 [Compound P-2198, Ethanesulfonic acid (2-{[6-fluoro-5-(5-methyl-1H-pyrrolo[2,3-b]pyridin-3-ylmethyl)-pyridin-2-ylamino]-methyl}-phenyl)-amide] | > 10 µM |  | < 5 µM |  | > 10 µM | < 5 µM | 5 to 10 µM |  |  |  |  |  |  |
| COc1ccc(CNc2ccc(Cc3c[nH]c4ncc(C)cc34)c(F)n2)c(OC)n1 [Compound P-2097, (2,6-Dimethoxy-pyridin-3-ylmethyl)-[6-fluoro-5-(5-methyl-1H-pyrrolo[2,3-b]pyridin-3-ylmethyl)-pyridin-2-yl]-amine] | > 10 µM |  |  | 5 to 10 µM | > 10 µM |  |  |  |  | 5 to 10 µM | < 5 µM |  |  |
| Cc1ccc(CNc2ccc(Cc3c[nH]c4ncc(C)cc34)c(F)n2)nc1 [Compound P-2131, [6-Fluoro-5-(5-methyl-1H-pyrrolo[2,3-b]pyridin-3-ylmethyl)-pyridin-2-yl]-(5-methyl-pyridin-2-ylmethyl)-amine] | > 10 µM |  |  |  |  | < 5 µM |  | 5 to 10 µM | > 10 µM |  | < 5 µM |  |  |

From patent US9096593B2, “Compounds and methods for kinase modulation, and indications therefor” (Plexxikon Inc., priority 2009, dated 2015)
